Experimental data reported in ChEMBL document CHEMBL5233271, “Discovering the Mechanisms of Wikstroelide E as a Potential HIV-Latency-Reversing Agent by Transcriptome Profiling” (J Nat Prod, 2021).
Activity calls are given as the source filed them.

Tests used:
[1] = system: J-Lat Tat-GFP Clone A2; test: Upregulation of CLIC1 gene expression in human J-Lat Tat-GFP Clone A2 cells at 10 nM measured after 6 hrs by transcriptome analysis; assay type: functional, cell-based
[2] = system: J-Lat Tat-GFP Clone A2; test: Upregulation of CORO1A gene expression in human J-Lat Tat-GFP Clone A2 cells at 10 nM measured after 6 hrs by transcriptome analysis; assay type: functional, cell-based
[3] = system: J-Lat Tat-GFP Clone A2; test: Upregulation of DDRGK1 gene expression in human J-Lat Tat-GFP Clone A2 cells at 10 nM measured after 6 hrs by transcriptome analysis; assay type: functional, cell-based
[4] = system: J-Lat Tat-GFP Clone A2; test: Upregulation of DGKA gene expression in human J-Lat Tat-GFP Clone A2 cells at 10 nM measured after 6 hrs by transcriptome analysis; assay type: functional, cell-based
[5] = system: J-Lat Tat-GFP Clone A2; test: Upregulation of FMNL1 gene expression in human J-Lat Tat-GFP Clone A2 cells at 10 nM measured after 6 hrs by transcriptome analysis; assay type: functional, cell-based
[6] = system: J-Lat Tat-GFP Clone A2; test: Upregulation of HSP90B1 gene expression in human J-Lat Tat-GFP Clone A2 cells at 10 nM measured after 6 hrs by transcriptome analysis; assay type: functional, cell-based
[7] = system: J-Lat Tat-GFP Clone A2; test: Upregulation of SACM1L gene expression in human J-Lat Tat-GFP Clone A2 cells at 10 nM measured after 6 hrs by transcriptome analysis; assay type: functional, cell-based
[8] = system: J-Lat Tat-GFP Clone A2; test: Downregulation of ADI1 gene expression in human J-Lat Tat-GFP Clone A2 cells at 10 nM measured after 6 hrs by transcriptome analysis; assay type: functional, cell-based
[9] = system: J-Lat Tat-GFP Clone A2; test: Downregulation of ARID4B gene expression in human J-Lat Tat-GFP Clone A2 cells at 10 nM measured after 6 hrs by transcriptome analysis; assay type: functional, cell-based
[10] = system: J-Lat Tat-GFP Clone A2; test: Downregulation of CCNB1 gene expression in human J-Lat Tat-GFP Clone A2 cells at 10 nM measured after 6 hrs by transcriptome analysis; assay type: functional, cell-based
[11] = system: J-Lat Tat-GFP Clone A2; test: Downregulation of CHEK1 gene expression in human J-Lat Tat-GFP Clone A2 cells at 10 nM measured after 6 hrs by transcriptome analysis; assay type: functional, cell-based
[12] = system: J-Lat Tat-GFP Clone A2; test: Downregulation of CNBP gene expression in human J-Lat Tat-GFP Clone A2 cells at 10 nM measured after 6 hrs by transcriptome analysis; assay type: functional, cell-based
[13] = system: J-Lat Tat-GFP Clone A2; test: Downregulation of FLNB gene expression in human J-Lat Tat-GFP Clone A2 cells at 10 nM measured after 6 hrs by transcriptome analysis; assay type: functional, cell-based
[14] = system: J-Lat Tat-GFP Clone A2; test: Downregulation of IKBKG gene expression in human J-Lat Tat-GFP Clone A2 cells at 10 nM measured after 6 hrs by transcriptome analysis; assay type: functional, cell-based
[15] = system: J-Lat Tat-GFP Clone A2; test: Downregulation of INTS10 gene expression in human J-Lat Tat-GFP Clone A2 cells at 10 nM measured after 6 hrs by transcriptome analysis; assay type: functional, cell-based
[16] = system: J-Lat Tat-GFP Clone A2; test: Downregulation of LRSAM1 gene expression in human J-Lat Tat-GFP Clone A2 cells at 10 nM measured after 6 hrs by transcriptome analysis; assay type: functional, cell-based
[17] = system: J-Lat Tat-GFP Clone A2; test: Downregulation of PRKCQ gene expression in human J-Lat Tat-GFP Clone A2 cells at 10 nM measured after 6 hrs by transcriptome analysis; assay type: functional, cell-based
[18] = system: NH2; test: Activation of NFkappaB signalling pathway in human NH2 cells assessed as increase in IkappaBalpha phosphorylation measured after 1 hr by Western blot analysis; assay type: cell-based; settings: filed as activator, dose 0-80 nM
[19] = system: J-Lat Tat-GFP Clone A2; test: Activation of NFkappaB signalling pathway in human J-Lat Tat-GFP Clone A2 cells assessed as increase in IkappaBalpha phosphorylation measured after 1 hr by Western blot analysis; assay type: cell-based; settings: filed as activator, dose 0-80 nM
[20] = system: NH2; test: Activation of NFkappaB signalling pathway in human NH2 cells assessed as increase in IkappaBalpha phosphorylation at 40 nM by Western blot analysis; assay type: cell-based; settings: filed as activator, time 5-120 min, TDE = time-dependent effect
[21] = system: J-Lat Tat-GFP Clone A2; test: Activation of NFkappaB signalling pathway in human J-Lat Tat-GFP Clone A2 cells assessed as increase in IkappaBalpha phosphorylation at 40 nM by Western blot analysis; assay type: cell-based; settings: filed as activator, time 5-120 min, TDE = time-dependent effect
[22] = system: Human immunodeficiency virus; test: HIV-latency reversing activity in human NH2 cells at 10 nM pretreated with BAY11-7082 for 1 hr followed by compound addition and measured after 12 hrs by luciferase based assay; assay type: functional, organism-based
[23] = system: NH2; test: Activation of NFkappaB signalling pathway in human NH2 cells assessed as increase in translocation of p65 from cytoplasm to nucleus at 40 nM pretreated with PKC inhibitor, Go6983 for 1 hr followed by compound addition and measured after 12 hrs by Western blot analysis; assay type: cell-based
[24] = system: Human immunodeficiency virus; test: HIV-latency reversing activity in human NH2 cells at 10 nM pretreated with JAK inhibitor, -decernotinib for 1 hr followed by compound addition and measured after 12 hrs by luciferase based assay; assay type: functional, organism-based
[25] = Cytotoxicity against human J-Lat 2D10 cells at 1 uM incubated for 72 hrs; assay type: toxicity, cell-based
[26] = Cytotoxicity against human NH1 cells at 1 uM incubated for 72 hrs; assay type: toxicity, cell-based; settings: nh1, 72 h
[27] = Cytotoxicity against human NH2 cells at 1 uM incubated for 72 hrs; assay type: toxicity, cell-based; settings: nh2, 72 h

Measured: Activity

C=C(C)[C@]12C[C@@H](C)[C@@]34O[C@]5(CCCCCCC[C@H](C)[C@H]6[C@H](C)C(=O)[C@@](O)([C@H](O)[C@@]7(CO)O[C@H]7[C@H]3[C@H]1O5)[C@@H]64)O2
active: [1] | [2] | [3] | [4] | [5] | [6] | [7] | [8] | [9] | [10] | [11] | [12] | [13] | [14] | [15] | [16] | [17] | [18] Dose-Dependent Effect | [19] Dose-Dependent Effect | [20] Tde | [21] Tde
inactive: [22] | [23] | [24]
Non-Toxic: [25] | [26] | [27]
